“And” between values parts separate entries of the source, which are not always exact repeats. Identical values can stand only once. “Also recorded” adds a separate entry of the source. Positions of bridges follow the written chain, without caps; N, C: chain ends. Residues, ends and D or L forms follow the SMILES beside them.
Tests used:
[1] = biological target: T1, type 1 ryanodine receptor (RyR1) (Homo sapiens, UniProt P21817); format: biochemical; parameters: sMCa-modified channels blocked by ruthenium red: dose or concentration left out as unconfirmed; conditions: for reversibility of the induced subconductance states on perfusion of the cis chamber: channel modified by sMCa and ryanodine, trace 5
T1 construct: from tissue; host or cells: sarcoplasmic reticulum (SR) vesicles
T1 sequence (P21817 whole entry, species assumed, the tested form may be a part): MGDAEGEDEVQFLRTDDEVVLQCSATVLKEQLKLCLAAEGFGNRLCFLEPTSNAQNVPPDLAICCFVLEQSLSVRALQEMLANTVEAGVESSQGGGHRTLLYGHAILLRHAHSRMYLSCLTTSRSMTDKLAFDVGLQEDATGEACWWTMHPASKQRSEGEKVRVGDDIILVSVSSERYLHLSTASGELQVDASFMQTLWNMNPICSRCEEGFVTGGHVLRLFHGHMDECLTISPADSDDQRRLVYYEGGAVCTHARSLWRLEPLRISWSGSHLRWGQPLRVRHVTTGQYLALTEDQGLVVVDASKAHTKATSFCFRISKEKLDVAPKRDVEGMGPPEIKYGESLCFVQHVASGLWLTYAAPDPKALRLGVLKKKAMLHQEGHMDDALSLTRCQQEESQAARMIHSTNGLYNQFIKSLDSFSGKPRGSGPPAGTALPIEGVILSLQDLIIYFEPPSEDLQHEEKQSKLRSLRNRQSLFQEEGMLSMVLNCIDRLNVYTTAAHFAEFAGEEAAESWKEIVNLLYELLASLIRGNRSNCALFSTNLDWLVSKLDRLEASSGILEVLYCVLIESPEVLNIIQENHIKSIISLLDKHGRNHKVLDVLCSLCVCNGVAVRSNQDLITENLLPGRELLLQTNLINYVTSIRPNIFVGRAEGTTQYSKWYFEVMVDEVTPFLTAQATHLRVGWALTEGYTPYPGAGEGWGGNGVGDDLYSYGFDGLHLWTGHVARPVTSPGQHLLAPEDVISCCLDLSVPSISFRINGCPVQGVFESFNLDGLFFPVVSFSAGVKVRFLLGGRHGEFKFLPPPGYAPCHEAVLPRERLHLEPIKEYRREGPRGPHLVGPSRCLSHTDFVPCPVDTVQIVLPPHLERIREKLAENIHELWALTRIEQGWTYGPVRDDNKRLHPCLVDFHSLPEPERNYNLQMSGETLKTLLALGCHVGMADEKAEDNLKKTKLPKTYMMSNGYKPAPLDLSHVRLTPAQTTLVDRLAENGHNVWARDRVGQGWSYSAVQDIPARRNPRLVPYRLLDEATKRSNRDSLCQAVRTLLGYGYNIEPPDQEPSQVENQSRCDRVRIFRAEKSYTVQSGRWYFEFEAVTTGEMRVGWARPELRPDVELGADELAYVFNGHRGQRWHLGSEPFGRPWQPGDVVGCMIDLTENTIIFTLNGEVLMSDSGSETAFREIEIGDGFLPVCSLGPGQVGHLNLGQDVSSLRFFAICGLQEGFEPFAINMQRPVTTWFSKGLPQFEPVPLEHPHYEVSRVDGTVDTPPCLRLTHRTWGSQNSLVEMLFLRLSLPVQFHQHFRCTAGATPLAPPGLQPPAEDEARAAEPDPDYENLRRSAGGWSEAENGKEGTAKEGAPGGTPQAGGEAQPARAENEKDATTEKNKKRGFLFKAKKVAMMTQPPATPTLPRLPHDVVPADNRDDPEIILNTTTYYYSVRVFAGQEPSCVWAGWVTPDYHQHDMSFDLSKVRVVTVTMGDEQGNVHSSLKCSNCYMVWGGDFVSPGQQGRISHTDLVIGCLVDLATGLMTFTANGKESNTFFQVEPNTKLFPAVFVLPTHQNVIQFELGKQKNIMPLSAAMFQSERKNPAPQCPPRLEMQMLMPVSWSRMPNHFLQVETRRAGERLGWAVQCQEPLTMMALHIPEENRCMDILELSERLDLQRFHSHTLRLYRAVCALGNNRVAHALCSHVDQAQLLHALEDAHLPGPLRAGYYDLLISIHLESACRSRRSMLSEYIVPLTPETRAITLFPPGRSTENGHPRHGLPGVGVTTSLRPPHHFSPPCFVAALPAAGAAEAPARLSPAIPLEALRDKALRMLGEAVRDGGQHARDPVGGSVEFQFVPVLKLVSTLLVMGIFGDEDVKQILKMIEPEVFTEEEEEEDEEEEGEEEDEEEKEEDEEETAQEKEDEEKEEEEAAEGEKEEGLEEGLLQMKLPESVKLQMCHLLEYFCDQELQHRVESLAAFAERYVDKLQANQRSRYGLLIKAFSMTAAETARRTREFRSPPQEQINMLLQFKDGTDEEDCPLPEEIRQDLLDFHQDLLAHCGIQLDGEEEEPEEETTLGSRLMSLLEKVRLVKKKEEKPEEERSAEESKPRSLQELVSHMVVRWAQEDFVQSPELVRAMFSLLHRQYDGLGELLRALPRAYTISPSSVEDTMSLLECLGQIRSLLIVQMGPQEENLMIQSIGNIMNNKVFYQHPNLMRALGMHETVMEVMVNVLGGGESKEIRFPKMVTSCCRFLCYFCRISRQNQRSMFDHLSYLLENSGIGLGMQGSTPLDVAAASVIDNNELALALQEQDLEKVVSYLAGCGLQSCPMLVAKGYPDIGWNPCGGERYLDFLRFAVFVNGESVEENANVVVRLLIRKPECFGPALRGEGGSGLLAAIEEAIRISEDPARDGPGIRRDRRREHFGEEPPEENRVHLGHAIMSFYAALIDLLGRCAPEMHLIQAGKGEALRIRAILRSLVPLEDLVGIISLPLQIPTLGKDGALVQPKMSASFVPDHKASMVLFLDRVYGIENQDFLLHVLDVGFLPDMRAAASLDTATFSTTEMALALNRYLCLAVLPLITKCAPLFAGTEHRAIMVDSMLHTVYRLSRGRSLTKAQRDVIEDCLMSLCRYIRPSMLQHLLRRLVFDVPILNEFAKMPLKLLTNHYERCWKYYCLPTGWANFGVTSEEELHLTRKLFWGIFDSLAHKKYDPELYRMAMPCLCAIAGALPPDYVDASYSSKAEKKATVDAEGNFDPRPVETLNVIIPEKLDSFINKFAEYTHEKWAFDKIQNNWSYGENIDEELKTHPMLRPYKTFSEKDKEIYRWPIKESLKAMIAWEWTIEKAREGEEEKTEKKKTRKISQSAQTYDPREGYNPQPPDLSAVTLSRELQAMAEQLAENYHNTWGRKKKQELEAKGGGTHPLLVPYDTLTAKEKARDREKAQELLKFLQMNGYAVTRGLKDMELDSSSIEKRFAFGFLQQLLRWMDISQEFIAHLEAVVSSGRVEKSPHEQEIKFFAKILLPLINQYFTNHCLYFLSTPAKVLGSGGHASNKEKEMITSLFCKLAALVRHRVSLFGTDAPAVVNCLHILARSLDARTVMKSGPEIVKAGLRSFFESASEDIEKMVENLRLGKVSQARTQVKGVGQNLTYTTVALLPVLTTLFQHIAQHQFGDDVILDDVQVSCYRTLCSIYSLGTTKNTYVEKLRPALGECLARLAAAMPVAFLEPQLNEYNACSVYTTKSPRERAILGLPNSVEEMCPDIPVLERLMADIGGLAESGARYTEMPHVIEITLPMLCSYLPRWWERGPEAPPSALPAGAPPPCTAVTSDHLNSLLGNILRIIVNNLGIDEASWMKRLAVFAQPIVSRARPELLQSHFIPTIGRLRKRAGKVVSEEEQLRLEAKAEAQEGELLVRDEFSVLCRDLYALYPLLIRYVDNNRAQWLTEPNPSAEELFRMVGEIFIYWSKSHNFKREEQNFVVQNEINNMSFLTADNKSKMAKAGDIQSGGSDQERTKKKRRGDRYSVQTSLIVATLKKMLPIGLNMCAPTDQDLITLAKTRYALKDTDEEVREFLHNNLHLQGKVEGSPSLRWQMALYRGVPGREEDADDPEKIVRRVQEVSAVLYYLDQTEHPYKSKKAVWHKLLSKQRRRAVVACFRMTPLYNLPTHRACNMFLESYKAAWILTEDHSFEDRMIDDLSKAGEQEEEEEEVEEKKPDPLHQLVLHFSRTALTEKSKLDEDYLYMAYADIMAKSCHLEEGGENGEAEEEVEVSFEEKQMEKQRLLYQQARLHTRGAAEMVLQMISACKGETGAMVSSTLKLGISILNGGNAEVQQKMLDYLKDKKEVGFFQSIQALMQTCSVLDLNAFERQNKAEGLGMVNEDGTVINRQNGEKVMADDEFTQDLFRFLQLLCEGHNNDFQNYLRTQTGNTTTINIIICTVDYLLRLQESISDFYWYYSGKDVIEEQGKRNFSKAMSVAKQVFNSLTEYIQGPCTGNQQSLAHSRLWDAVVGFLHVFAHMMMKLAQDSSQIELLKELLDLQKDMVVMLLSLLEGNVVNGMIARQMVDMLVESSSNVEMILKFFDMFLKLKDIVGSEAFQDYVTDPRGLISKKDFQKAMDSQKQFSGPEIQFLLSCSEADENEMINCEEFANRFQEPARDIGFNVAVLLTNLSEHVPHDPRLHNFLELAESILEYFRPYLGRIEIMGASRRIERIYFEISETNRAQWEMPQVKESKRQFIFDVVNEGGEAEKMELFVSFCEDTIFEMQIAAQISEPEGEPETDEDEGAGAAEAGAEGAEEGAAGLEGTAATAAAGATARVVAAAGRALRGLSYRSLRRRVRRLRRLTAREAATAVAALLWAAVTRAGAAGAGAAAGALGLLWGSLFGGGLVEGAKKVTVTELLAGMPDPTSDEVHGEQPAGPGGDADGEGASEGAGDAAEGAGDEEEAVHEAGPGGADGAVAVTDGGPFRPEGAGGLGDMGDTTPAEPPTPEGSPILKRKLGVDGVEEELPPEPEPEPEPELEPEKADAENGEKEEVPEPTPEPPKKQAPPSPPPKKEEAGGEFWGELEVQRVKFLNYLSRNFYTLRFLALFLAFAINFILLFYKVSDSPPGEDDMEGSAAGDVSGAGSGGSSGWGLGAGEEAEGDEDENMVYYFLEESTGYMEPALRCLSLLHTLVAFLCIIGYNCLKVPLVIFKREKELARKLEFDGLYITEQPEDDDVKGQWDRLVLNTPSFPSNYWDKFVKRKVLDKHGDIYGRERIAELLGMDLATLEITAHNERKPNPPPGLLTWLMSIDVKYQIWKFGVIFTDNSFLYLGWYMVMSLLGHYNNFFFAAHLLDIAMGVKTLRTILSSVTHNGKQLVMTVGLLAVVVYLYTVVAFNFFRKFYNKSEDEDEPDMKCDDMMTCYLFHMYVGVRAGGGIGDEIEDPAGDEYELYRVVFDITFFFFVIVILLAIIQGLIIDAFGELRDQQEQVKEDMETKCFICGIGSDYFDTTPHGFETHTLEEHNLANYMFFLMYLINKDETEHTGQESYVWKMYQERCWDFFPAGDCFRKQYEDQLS
Protocol: Single-channel recording: Cs^+ current through single RyR1 channels incorporated into planar lipid bilayers (BLM) was measured in an asymmetric CsCl (10:1 cis:trans) solution. The BLM was formed from a mixture of phosphatidylethanolamine and phosphatidylcholine (5:2, w/w) at 30-50 mg/ml in decane, across a […] aperture in a 1.0 ml polystyrene cup. SR vesicles were added to the cis side of chamber at a final concentration of 0.1-10 mg/ml. The cis solution contained 500 mM CsCl, ˜7 mM CaCl2, 20 mM HEPES, pH 7.4, and the trans solution contained 50 mM CsCl, 7 mM free Ca^2+, 20 mM HEPES, pH 7.4. The monovalent cation Cs^+ was used as permeant ion instead of divalent cations (such as Ca^2+) owing to its better permeability through RyR1. After a single fusion event, sarcoplasmic reticulum (SR) vesicles in cis chamber were quickly removed by perfusion with 9× volume of is solution. Single-channel current was measured under voltage clamp using a Dagan 3900 amplifier (Dagan Instruments, Minneapolis, Minn.). Holding potentials were with respect to the trans (ground) chamber, and positive current was defined as current flowing from cis to trans. Current signals were captured at 10 kHz and filtered at 1 kHz using a four pole Bessel filter. Data was digitized with a Digidata 1200 interface (Axon Instruments, Burlingame, Calif.) and stored on computer for subsequent analysis. Unless otherwise stated, test chemicals were sequentially added to the cis solution after an initial period of recording control channel behaviour. Single channel activity was analyzed with pCLAMP 7.0 (Axon Instruments). Current levels were analyzed by mean-variance analysis and peaks in the all-points amplitude histogram were fitted with Gaussian functions. The all-points amplitude histograms were constructed from selected segments-of data 20-150 sec in length to quantify the incidence of full and subconductance states.
To test this hypothesis, we performed electrophysiological experiments on single RyR1 channels incorporated into planar lipid bilayers.

mice = experiment: Lethality after intracerebroventricular injection in mice
[2] = biological target: T1, type 1 ryanodine receptor (RyR1); conditions: comparison with sMCa; cited from earlier work
[3] = sMCa and ryanodine (1 μM) both present

N.N.N.N.N.N.N.N.N.N.N.N.N.N.[Cl-].[Cl-].[Cl-].[Cl-].[Cl-].[Cl-].[O-2].[O-2].[Ru+3].[Ru+3].[Ru+4] [ruthenium red, reference compound]
block of the ryanodine/sMCa modified channel [1]: completely blocked
sMCa-modified channels blocked by ruthenium red ([1]; ruthenium red): Five out of six channels

CC[C@H](C)[C@@H]1NC(=O)[C@H](CC(N)=O)NC(=O)[C@H]([C@@H](C)O)NC(=O)CNC(=O)[C@H](CCCNC(=N)N)NC(=O)[C@H](CCCNC(=N)N)NC(=O)[C@H](CCCCN)NC(=O)[C@@H]2CSSC[C@@H]3NC(=O)[C@H](CC(C)C)NC(=O)[C@H](CCCCN)NC(=O)[C@H](CC(C)C)NC(=O)[C@H](Cc4c[nH]cn4)NC(=O)[C@@H]4CCCN4C(=O)[C@H](CC(C)C)NC(=O)[C@@H](NC(=O)[C@H](CC(=O)O)NC(=O)CN)CSSC[C@H](NC(=O)[C@H](CSSC[C@@H](C(=O)N[C@@H](CCCNC(=N)N)C(=O)O)NC(=O)[C@H](CCCNC(=N)N)NC(=O)[C@H](CCCCN)NC(=O)[C@H](CCC(=O)O)NC1=O)NC(=O)[C@H](CC(=O)O)NC(=O)[C@H](CCCCN)NC(=O)[C@H](CC(N)=O)NC(=O)[C@H](CCC(=O)O)NC(=O)[C@H](CCCCN)NC3=O)C(=O)N[C@@H](CO)C(=O)N[C@@H](CCCCN)C(=O)N[C@@H](CCCCN)C(=O)N2 [sMCa, maurocalcine] (H-GDCLPHLKLCKENKDCCSKKCKRRGTNIEKRCR-OH; disulfide 3-17, 10-21, 16-32)
reversibility of the induced subconductance states on perfusion of the cis chamber [1]: reversed the sMCa-induced quarter states
effect on RyR1 channel gating, toxin applied on the cis (cytoplasmic) side ([1]; nanomolar concentration (5 nM to 1 μM), cis chamber): dramatically modified the channel gating behavior; also recorded: potently and reversibly modifies channel gating behaviour; also recorded: potently activates RyR1 channels
minor subconductance induced, fraction of the full conductance level ([1]; sMCa alone, cis, to a smaller extent): one-quarter
predominant subconductance induced, fraction of the characteristic full conductance ([1]; sMCa alone, cis, traces 1-3): one-half
half subconductance, % of the characteristic control conductance level [1, 3]: ~50.5% and 51%
quarter subconductance, % of the characteristic control conductance level [1, 3]: ~29.3% and 29%
effect on RyR1, toxin applied on the trans (luminal) side ([1]; trans side): No effect
LD50 (mice): 20 μg per mouse

Imperatoxin A (GDCLPHLKRCKADNDCCGKKCKRRGTNAEKRCR; UniProt P59868 1-33, looked up) [IpTx A]
conductance state of RyR1 favoured [2]: ⅓

ryanodine [reference compound]
reversibility of the induced subconductance states on perfusion of the cis chamber [1]: ryanodine-mediated half-states persisted
sMCa-modified channels subsequently modified by ryanodine ([1]; ryanodine 1 μM): Four out of five channels

— US7319089B2, “Maurocalcine, analogues thereof and their therapeutical uses” (priority 2000, dated 2008)
